Data taken from US8192962B2, “Processes for detecting toxic substances” (Daikin Industries, Ltd., priority 2001, dated 2012).

Tested on: Energy system protein genes
Experiment: DNA chip mRNA expression in yeast, energy system protein genes (Table 4)
Format: cell-based, Saccharomyces cerevisiae S288C
Outline: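 In this screen, yeast in logarithmic growth are challenged for two hours with a toxic substance at a non-lethal inhibitory concentration. Their mRNA, converted to Cy3- or Cy5-labeled cDNA, hybridizes at 65° C. to a chip spanning every yeast gene, and expression is expressed as a ratio to untreated cells.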

SMILES: CCCCC[C@H](O)CC(=O)CCc1ccc(O)c(OC)c1 [(13), gingerol]
- The level of expressed mRNA in the presence of chemical substance/The level of expressed mRNA in the absence of chemical substance (yeast gene YAL038W): 1.8
- The level of expressed mRNA in the presence of chemical substance/The level of expressed mRNA in the absence of chemical substance (yeast gene YAL054C): 1.8
- The level of expressed mRNA in the presence of chemical substance/The level of expressed mRNA in the absence of chemical substance (yeast gene YAL060W): 2.2
- The level of expressed mRNA in the presence of chemical substance/The level of expressed mRNA in the absence of chemical substance (yeast gene YBL058W, cells incubated two hours with the chemical substance): 1.6
- The level of expressed mRNA in the presence of chemical substance/The level of expressed mRNA in the absence of chemical substance (yeast gene YBR126C): 2.1
- The level of expressed mRNA in the presence of chemical substance/The level of expressed mRNA in the absence of chemical substance (yeast gene YBR145W): 2.0
- The level of expressed mRNA in the presence of chemical substance/The level of expressed mRNA in the absence of chemical substance (yeast gene YBR185C, cells incubated two hours with the chemical substance): 1.0
- The level of expressed mRNA in the presence of chemical substance/The level of expressed mRNA in the absence of chemical substance (yeast gene YBR196C): 1.4
- The level of expressed mRNA in the presence of chemical substance/The level of expressed mRNA in the absence of chemical substance (yeast gene YBR299W): 0.7
- The level of expressed mRNA in the presence of chemical substance/The level of expressed mRNA in the absence of chemical substance (yeast gene YCR005C): 0.7
- The level of expressed mRNA in the presence of chemical substance/The level of expressed mRNA in the absence of chemical substance (yeast gene YCR046C, cells incubated two hours with the chemical substance): 1.5
- The level of expressed mRNA in the presence of chemical substance/The level of expressed mRNA in the absence of chemical substance (yeast gene YCR107W): 4.0
- The level of expressed mRNA in the presence of chemical substance/The level of expressed mRNA in the absence of chemical substance (yeast gene YDL067C, cells incubated two hours with the chemical substance): 0.6
- The level of expressed mRNA in the presence of chemical substance/The level of expressed mRNA in the absence of chemical substance (yeast gene YDL078C, cells incubated two hours with the chemical substance): 1.0
- The level of expressed mRNA in the presence of chemical substance/The level of expressed mRNA in the absence of chemical substance (yeast gene YDL107W, cells incubated two hours with the chemical substance): 1.2
- The level of expressed mRNA in the presence of chemical substance/The level of expressed mRNA in the absence of chemical substance (yeast gene YDL174C): 5.9
- The level of expressed mRNA in the presence of chemical substance/The level of expressed mRNA in the absence of chemical substance (yeast gene YDR001C): 2.8
- The level of expressed mRNA in the presence of chemical substance/The level of expressed mRNA in the absence of chemical substance (yeast gene YDR231C): 2.4
- The level of expressed mRNA in the presence of chemical substance/The level of expressed mRNA in the absence of chemical substance (yeast gene YDR298C, cells incubated two hours with the chemical substance): 1.2
- The level of expressed mRNA in the presence of chemical substance/The level of expressed mRNA in the absence of chemical substance (yeast gene YDR377W, cells incubated two hours with the chemical substance): 0.7
- The level of expressed mRNA in the presence of chemical substance/The level of expressed mRNA in the absence of chemical substance (yeast gene YDR380W): 0.4
- The level of expressed mRNA in the presence of chemical substance/The level of expressed mRNA in the absence of chemical substance (yeast gene YDR529C, cells incubated two hours with the chemical substance): 0.7
- The level of expressed mRNA in the presence of chemical substance/The level of expressed mRNA in the absence of chemical substance (yeast gene YEL011W): 1.5
- The level of expressed mRNA in the presence of chemical substance/The level of expressed mRNA in the absence of chemical substance (yeast gene YEL020C): 1.2
- The level of expressed mRNA in the presence of chemical substance/The level of expressed mRNA in the absence of chemical substance (yeast gene YEL024W, cells incubated two hours with the chemical substance): 0.6
- The level of expressed mRNA in the presence of chemical substance/The level of expressed mRNA in the absence of chemical substance (yeast gene YEL047C, cells incubated two hours with the chemical substance): 1.6
- The level of expressed mRNA in the presence of chemical substance/The level of expressed mRNA in the absence of chemical substance (yeast gene YEL071W, cells incubated two hours with the chemical substance): 1.6
- The level of expressed mRNA in the presence of chemical substance/The level of expressed mRNA in the absence of chemical substance (yeast gene YER178W): 2.4
- The level of expressed mRNA in the presence of chemical substance/The level of expressed mRNA in the absence of chemical substance (yeast gene YFR015C): 2.5
- The level of expressed mRNA in the presence of chemical substance/The level of expressed mRNA in the absence of chemical substance (yeast gene YFR053C): 3.0
- The level of expressed mRNA in the presence of chemical substance/The level of expressed mRNA in the absence of chemical substance (yeast gene YGL134W): 0.7
- The level of expressed mRNA in the presence of chemical substance/The level of expressed mRNA in the absence of chemical substance (yeast gene YGL187C, cells incubated two hours with the chemical substance): 0.7
- The level of expressed mRNA in the presence of chemical substance/The level of expressed mRNA in the absence of chemical substance (yeast gene YGL191W, cells incubated two hours with the chemical substance): 1.1
- The level of expressed mRNA in the presence of chemical substance/The level of expressed mRNA in the absence of chemical substance (yeast gene YGL205W, cells incubated two hours with the chemical substance): 1.0
- The level of expressed mRNA in the presence of chemical substance/The level of expressed mRNA in the absence of chemical substance (yeast gene YGL253W): 1.5
- The level of expressed mRNA in the presence of chemical substance/The level of expressed mRNA in the absence of chemical substance (yeast gene YGR008C): 3.4
- The level of expressed mRNA in the presence of chemical substance/The level of expressed mRNA in the absence of chemical substance (yeast gene YGR062C, cells incubated two hours with the chemical substance, 25° C., YPD medium): 1.5
- The level of expressed mRNA in the presence of chemical substance/The level of expressed mRNA in the absence of chemical substance (yeast gene YGR112W, cells incubated two hours with the chemical substance): 1.1
- The level of expressed mRNA in the presence of chemical substance/The level of expressed mRNA in the absence of chemical substance (yeast gene YGR192C): 3.4
- The level of expressed mRNA in the presence of chemical substance/The level of expressed mRNA in the absence of chemical substance (yeast gene YGR207C): 1.0
- The level of expressed mRNA in the presence of chemical substance/The level of expressed mRNA in the absence of chemical substance (yeast gene YGR244C): 2.6
- The level of expressed mRNA in the presence of chemical substance/The level of expressed mRNA in the absence of chemical substance (yeast gene YGR254W): 3.1
- The level of expressed mRNA in the presence of chemical substance/The level of expressed mRNA in the absence of chemical substance (yeast gene YHL008C): 1.8
- The level of expressed mRNA in the presence of chemical substance/The level of expressed mRNA in the absence of chemical substance (yeast gene YHR179W): 2.6
- The level of expressed mRNA in the presence of chemical substance/The level of expressed mRNA in the absence of chemical substance (yeast gene YIL045W): 2.0
- The level of expressed mRNA in the presence of chemical substance/The level of expressed mRNA in the absence of chemical substance (yeast gene YIL111W): 1.7
- The level of expressed mRNA in the presence of chemical substance/The level of expressed mRNA in the absence of chemical substance (yeast gene YIL160C): 2.3
- The level of expressed mRNA in the presence of chemical substance/The level of expressed mRNA in the absence of chemical substance (yeast gene YIL172C): 2.0
